In ChEMBL document CHEMBL3714750, “Aryl sulfonamides” (2008):

Target: T1, C-C chemokine receptor type 9 (Homo sapiens, UniProt P51686)
T1 sequence (P51686 whole entry): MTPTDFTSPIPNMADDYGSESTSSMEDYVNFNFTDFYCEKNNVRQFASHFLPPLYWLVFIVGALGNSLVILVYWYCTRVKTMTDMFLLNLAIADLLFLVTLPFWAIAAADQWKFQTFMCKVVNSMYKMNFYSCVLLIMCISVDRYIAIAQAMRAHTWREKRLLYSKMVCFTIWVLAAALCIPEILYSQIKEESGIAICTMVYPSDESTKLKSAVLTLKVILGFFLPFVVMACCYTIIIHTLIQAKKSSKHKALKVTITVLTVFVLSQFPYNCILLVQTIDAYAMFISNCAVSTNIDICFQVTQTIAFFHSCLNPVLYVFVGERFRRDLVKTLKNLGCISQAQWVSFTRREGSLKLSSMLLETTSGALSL
Test: Antagonist activity against CCR9 in human MOLT4 cells assessed as inhibition of human recombinant TECK-induced calcium response pre-treated before TECK stimulation by Flou-4-AM dye based FLIPR assay
Format: functional, cell-based, MOLT-4

SMILES | IC50 [nM]
Cc1ncccc1C(=O)c1cc(Cl)ccc1NS(=O)(=O)c1ccc(S(C)(=O)=O)cc1 | < 1000
Cc1ccc(C(=O)c2cc(Cl)ccc2NS(=O)(=O)c2ccc(OC(C)C)cc2)cn1 | < 1000
O=C(c1cccnc1)c1cc(Cl)ccc1NS(=O)(=O)c1ccc(OC(F)(F)F)cc1 | < 1000
Cc1ccc(C(=O)c2cc(Cl)ccc2NS(=O)(=O)c2ccc(-c3cnco3)cc2)cn1 | < 1000
O=C(c1ccncc1)c1cc(Cl)ccc1NS(=O)(=O)c1ccc(-c2ccccc2)cc1 | < 1000
CC(=O)c1ccc(S(=O)(=O)Nc2ccc(Cl)cc2C(=O)c2ccnc(C)c2)cc1 | > 1000
CC(C)(C)c1ccc(S(=O)(=O)Nc2ccc(Br)cc2C(=O)c2ccncc2)cc1 | < 1000
CC(C)(c1ccc(S(=O)(=O)Nc2ccc(Cl)cc2C(=O)c2ccncc2)cc1)c1cnco1 | < 1000
CC(C)(C)c1ccc(S(=O)(=O)Nc2cc(Cl)ccc2C(=O)c2ccncc2)cc1 | < 1000
Cc1cccc(C(=O)c2cc(Cl)ccc2NS(=O)(=O)c2ccc(C3(C)CCOCC3)cc2)n1 | < 1000
COc1ccc(S(=O)(=O)Nc2ccc(Cl)cc2C(=O)Nc2ccccc2)cc1 | < 1000
CC1(c2ccc(S(=O)(=O)Nc3ccc(Cl)cc3C(=O)c3ccncc3)cc2)OCCO1 | < 1000
CCC(C)(C)c1ccc(S(=O)(=O)Nc2ccc(Cl)cc2C(=O)c2ccncc2)cc1 | < 1000
O=C(c1ccncc1)c1cc(Cl)ccc1NS(=O)(=O)c1ccc(N2CCCCC2)cc1 | < 1000
CC(C)c1ccc(S(=O)(=O)Nc2ccc(Br)cc2C(=O)c2ccncc2)cc1 | < 1000
Cc1cccc(C(=O)c2cc(Cl)ccc2NS(=O)(=O)c2ccc(-c3cnco3)cc2)n1 | < 1000
CC1(c2ccc(S(=O)(=O)Nc3ccc(Cl)cc3C(=O)c3cc[n+]([O-])cc3)cc2)CCOCC1 | < 1000
COc1ccc(S(=O)(=O)Nc2ccc(Cl)cc2C(=O)NCc2ccccc2)cc1 | < 1000
CC(C)(C)c1ccc(S(=O)(=O)Nc2ccc(Cl)cc2C(=O)c2ccnc(S(C)(=O)=O)c2)cc1 | < 1000
CSc1ccc(C(=O)c2cc(Cl)ccc2NS(=O)(=O)c2ccc(C(C)(C)C)cc2)cn1 | < 1000
Cc1ccncc1C(=O)c1cc(Cl)ccc1NS(=O)(=O)c1ccc(-c2cnco2)cc1 | < 1000
CC1(c2ccc(S(=O)(=O)Nc3ccc(Cl)cc3C(=O)c3ccccn3)cc2)CCOCC1 | < 1000

SMILES | IC50 [nM]
O=C(c1ccncc1)c1cc(Cl)ccc1NS(=O)(=O)c1ccc(-c2cc3ccccc3[nH]2)cc1 | > 1000
CC(C)(C)OC(=O)n1cccc1-c1ccc(S(=O)(=O)Nc2ccc(Cl)cc2C(=O)c2ccncc2)cc1 | > 1000
Cc1ccc(C(=O)c2cc(Cl)ccc2NS(=O)(=O)c2ccc(C(C)(C)C)cc2)c[n+]1[O-] | < 1000
COc1ccc(S(=O)(=O)Nc2ccc(Br)cc2C(=O)c2ccncc2)cc1 | > 1000
CCc1ccc(S(=O)(=O)Nc2ccc(Cl)cc2C(=O)c2ccncc2)cc1 | < 1000
COc1ccc(S(=O)(=O)Nc2ccc(Cl)cc2C(=O)NCCc2ccccc2)cc1 | < 1000
Cc1ccc(C(=O)c2cc(Cl)ccc2NS(=O)(=O)c2ccc(C(C)(C)c3cnco3)cc2)cn1 | < 1000
CC(C)Oc1ccc(S(=O)(=O)Nc2ccc(Cl)cc2C(=O)c2cccnc2)cc1 | < 1000
CC(C)(c1ccc(S(=O)(=O)Nc2ccc(Cl)cc2C(=O)c2ccc[n+]([O-])c2)cc1)c1ncco1 | < 1000
O=C(c1cc[n+]([O-])cc1)c1cc(Cl)ccc1NS(=O)(=O)c1ccc(-c2ccoc2)cc1 | < 1000
COc1ccc(S(=O)(=O)Nc2ccc(Cl)cc2C(=O)N2CCNCC2)cc1 | > 1000
Cc1cccc(C(=O)c2cc(Cl)ccc2NS(=O)(=O)c2ccc(C(C)(C)C)cc2)n1 | < 1000
O=C(c1ccncc1)c1cc(Cl)ccc1NS(=O)(=O)c1ccc(-c2csnn2)cc1 | < 1000
C[C@@H]1CN(c2ccc(S(=O)(=O)Nc3ccc(Cl)cc3C(=O)c3cc[n+]([O-])cc3)cc2)C[C@H](C)O1 | < 1000
CC1(c2ccc(S(=O)(=O)Nc3ccc(Cl)cc3C(=O)c3ccc[n+]([O-])c3)cc2)CCOCC1 | < 1000
CC(C)(C)c1ccc(S(=O)(=O)Nc2ccc(F)c(F)c2C(=O)c2ccncc2)cc1 | < 1000
Cc1cccc(C(=O)c2cc(Cl)ccc2NS(=O)(=O)c2ccc(-c3cnc(C)o3)cc2)n1 | > 1000
CC1(c2ccc(S(=O)(=O)Nc3ccc(Cl)cc3C(=O)c3cc[n+]([O-])cc3)cc2)OCCO1 | < 1000
O=C(c1ccncc1)c1cc(Cl)ccc1NS(=O)(=O)c1ccc(-c2cccnc2F)cc1 | > 1000
O=C(c1ccncc1)c1cc(Cl)ccc1NS(=O)(=O)c1ccc(-c2cncnc2)cc1 | > 1000
Cc1ccc(C(=O)c2cc(Cl)ccc2NS(=O)(=O)c2ccc(N3C[C@@H](C)O[C@@H](C)C3)cc2)c[n+]1[O-] | < 1000
CC(C)(C)c1ccc(S(=O)(=O)Nc2ccc(Cl)cc2C(=O)c2ccnc(C#N)c2)cc1 | < 1000

SMILES | IC50 [nM]
O=C(c1cc[n+]([O-])cc1)c1cc(Cl)ccc1NS(=O)(=O)c1ccc(N2CCOCC2)c(F)c1 | < 1000
CC(C)(c1ccc(S(=O)(=O)Nc2ccc(Cl)cc2C(=O)c2cc[n+]([O-])cc2)cc1)c1cnco1 | < 1000
Cc1ccc(C(=O)c2cc(Cl)ccc2NS(=O)(=O)c2ccc(N3CCOCC3)c(F)c2)cn1 | < 1000
O=C(c1ccncn1)c1cc(Cl)ccc1NS(=O)(=O)c1ccc(-c2cnco2)cc1 | > 1000
COc1ccc(S(=O)(=O)Nc2ccc(Cl)cc2C(=O)N2CCCC(Cc3ccccc3)C2)cc1 (stereo unspecified) | > 1000
O=C(c1ccc[n+]([O-])c1)c1cc(Cl)ccc1NS(=O)(=O)c1ccc(N2CCOCC2)cc1 | < 1000
Cc1ccc(C(=O)c2cc(Cl)ccc2NS(=O)(=O)c2ccc(C3(C)CCOCC3)cc2)cn1 | < 1000
CC(C)(c1ccc(S(=O)(=O)Nc2ccc(Cl)cc2C(=O)c2ccncc2)cc1)c1ncco1 | < 1000
Cc1ncccc1C(=O)c1cc(Cl)ccc1NS(=O)(=O)c1ccc(C(C)(C)C)cc1 | < 1000
Cc1cc(C(=O)c2cc(Cl)ccc2NS(=O)(=O)c2ccc(C(C)(C)C)cc2)cc[n+]1[O-] | < 1000
COC(=O)CCc1ccc(S(=O)(=O)Nc2ccc(Cl)cc2C(=O)c2ccncc2)cc1 | < 1000
Cc1ccc(C(=O)c2cc(Cl)ccc2NS(=O)(=O)c2ccc(C(C)(C)c3ncco3)cc2)c[n+]1[O-] | < 1000
Cc1ncccc1C(=O)c1cc(Cl)ccc1NS(=O)(=O)c1ccc(OC(C)C)cc1 | < 1000
CC(C)(C)c1ccc(S(=O)(=O)Nc2ccc(Cl)cc2C(=O)c2ccc(Cl)nc2)cc1 | < 1000
COC(=O)CCc1ccc(S(=O)(=O)Nc2ccc(Cl)cc2C(=O)c2ccc(C)[n+]([O-])c2)cc1 | < 1000
Cc1ccc(C(=O)c2cc(Cl)ccc2NS(=O)(=O)c2ccc(C(C)(C)C)cc2)cn1 | < 1000
Cc1ccc(C(=O)c2cc(Cl)ccc2NS(=O)(=O)c2ccc(N3C[C@@H](C)O[C@@H](C)C3)c(F)c2)cn1 | < 1000
O=C(c1ccncc1)c1cc(Cl)ccc1NS(=O)(=O)c1ccc(OC(F)(F)F)cc1 | < 1000
CC1(c2ccc(S(=O)(=O)Nc3ccc(Cl)cc3C(=O)c3cccnc3)cc2)CCOCC1 | < 1000
O=C(c1ccncc1)c1cc(Cl)ccc1NS(=O)(=O)c1ccc(-c2ccoc2)cc1 | < 1000
O=C(c1ccncc1)c1cc(Cl)ccc1NS(=O)(=O)c1ccc(-c2cnco2)cc1 | < 1000
O=C(c1ccncc1)c1cc(Cl)ccc1NS(=O)(=O)c1ccc(-c2ccc[nH]2)cc1 | > 1000

SMILES | IC50 [nM]
O=C(c1ccncc1)c1cc(Cl)ccc1NS(=O)(=O)c1ccc(N2CCOCC2)cc1 | < 1000
Cc1nnc(-c2ccc(S(=O)(=O)Nc3ccc(Cl)cc3C(=O)c3ccccn3)cc2)o1 | > 1000
Cc1ccc(C(=O)c2cc(Cl)ccc2NS(=O)(=O)c2ccc(-c3nnc(C)o3)cc2)cn1 | > 1000
CC(C)(C)c1ccc(S(=O)(=O)Nc2ccc(Cl)cc2C(=O)c2nccs2)cc1 | < 1000
Cc1noc(C)c1-c1ccc(S(=O)(=O)Nc2ccc(Cl)cc2C(=O)c2ccncc2)cc1 | < 1000
Cc1c(C(=O)c2cc(Cl)ccc2NS(=O)(=O)c2ccc(C(C)(C)C)cc2)ccc[n+]1[O-] | < 1000
O=C(c1ccncc1)c1cc(Cl)ccc1NS(=O)(=O)c1ccc(Cl)cc1 | > 1000
CC(C)(c1ccc(S(=O)(=O)Nc2ccc(Cl)cc2C(=O)c2ccnc(Cl)c2)cc1)c1ncco1 | < 1000
CC(C)(C)c1ccc(S(=O)(=O)Nc2ccc(F)cc2C(=O)c2ccncc2)cc1 | < 1000
CC(C)(C)c1ccc(S(=O)(=O)Nc2ccc(Cl)cc2C(=O)c2ccccn2)cc1 | < 1000
CC(C)(c1ccc(S(=O)(=O)Nc2ccc(Cl)cc2C(=O)c2cc[n+]([O-])cc2)cc1)c1ncco1 | < 1000
CC(=O)c1ccc(S(=O)(=O)Nc2ccc(Cl)cc2C(=O)c2ccncc2)cc1 | > 1000
CC(C)(C)c1ccc(S(=O)(=O)Nc2cc(F)c(F)cc2C(=O)c2ccncc2)cc1 | < 1000
Cc1cc(C(=O)c2cc(Cl)ccc2NS(=O)(=O)c2ccc(C3(C)CCOCC3)cc2)cc[n+]1[O-] | < 1000
O=C(c1ccncc1)c1cc(Cl)ccc1NS(=O)(=O)c1ccc(-c2ccsc2)cc1 | < 1000
Cc1cccc(C(=O)c2cc(Cl)ccc2NS(=O)(=O)c2ccc(C(C)(C)c3ncco3)cc2)n1 | < 1000
O=C(c1ccncc1)c1cc(Cl)ccc1NS(=O)(=O)c1ccc(-c2nccs2)cc1 | > 1000
C[C@@H]1CN(c2ccc(S(=O)(=O)Nc3ccc(Cl)cc3C(=O)c3ccncc3)cc2F)C[C@H](C)O1 | < 1000
CC(C)(C)c1ccc(S(=O)(=O)Nc2ccc(S(=O)(=O)N3CCCC3)cc2C(=O)c2ccncc2)cc1 | > 1000
Cc1cc(C(=O)c2cc(Cl)ccc2NS(=O)(=O)c2ccc(C(C)(C)C)cc2)ccn1 | < 1000
